We go through 19 compounds from PubChem BioAssay (NCI).

Among the test systems are EKVX NSCLC; U251 CNS; SW-620 colon; HCT-15 colon; COLO 205 colon; DU-145 prostate; OVCAR-8 ovarian; UACC-62 melanoma; M14 melanoma; ACHN renal.
Test in all cases: growth of human tumour cells (NCI), 48 h

The structures appear in SMILES notation. Several values for one entry are separate records, joined by “and”; a condition that tells them apart may be missing. Identical values can stand only once.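 48-hour exposure; five concentrations; linearly interpolated endpoints. GI50 is the concentration that inhibits growth by half. TGI denotes the concentration required for complete inhibition of growth.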

Take `CN(CCNC(=O)c1c[nH]c2c1Cc1ccccc1-2)CCNC(=O)c1c[nH]c2c1Cc1ccccc1-2`: the TGI is over 100 µM in the experiment on EKVX NSCLC; 34.7 µM with U251 CNS; over 100 µM in the experiment with SW-620 colon; over 100 µM in the experiment on HCT-15 colon; over 100 µM in the experiment on COLO 205 colon; over 100 µM with DU-145 prostate. Further, the TGI in the experiment on OVCAR-8 ovarian is over 100 µM; in the experiment with UACC-62 melanoma it was 40.9 µM; with M14 melanoma it was 84.6 µM; with ACHN renal, over 100 µM.

For the compound `CC(=O)OCC1OC(n2c(S)c(C#N)c(-c3ccccc3)c(C#N)c2=O)C(OC(C)=O)C(OC(C)=O)C1OC(C)=O` (stereo unspecified), the GI50 in the experiment with EKVX NSCLC is > 100 µM and 25.1 µM; with SW-620 colon, > 100 µM and 49.9 µM; with COLO 205 colon, > 100 µM and 26.1 µM; with OVCAR-8 ovarian, > 100 µM and 16.7 µM; in the experiment on UACC-62 melanoma, 82.3 µM and 23.2 µM; in the experiment on M14 melanoma it was > 100 µM and 36.5 µM. The TGI in the experiment with EKVX NSCLC was > 100 µM and 76.1 µM; with U251 CNS, over 100 µM; in the experiment with SW-620 colon, over 100 µM; in the experiment on HCT-15 colon, over 100 µM; in the experiment with COLO 205 colon it was > 100 µM and 65.3 µM; in the experiment on DU-145 prostate it was over 100 µM. Moreover, the TGI with OVCAR-8 ovarian is > 100 µM and 36.2 µM; in the experiment on UACC-62 melanoma it was > 100 µM and 59.5 µM; in the experiment with M14 melanoma, over 100 µM; in the experiment on ACHN renal it was over 100 µM.

As to `C(=Nc1ccc(-c2nc3ccccc3s2)cc1)c1ccc[nH]1`, the TGI in the experiment with EKVX NSCLC was determined as 45.4 µM; in the experiment with U251 CNS, 27.7 µM; in the experiment with SW-620 colon, 53.8 µM; with HCT-15 colon, 38.7 µM; in the experiment with COLO 205 colon, 31.8 µM; with DU-145 prostate, 34.5 µM. In addition, the TGI in the experiment with OVCAR-8 ovarian was over 100 µM; in the experiment with UACC-62 melanoma it was 30.7 µM; in the experiment on M14 melanoma, 34.2 µM; in the experiment with ACHN renal, 60.7 µM.

For the compound `COc1nc2ccc(COc3ccc(C(=O)O)cc3)cc2nc1OC`, the TGI in the experiment with EKVX NSCLC, in the experiment on U251 CNS, in the experiment with SW-620 colon, in the experiment on HCT-15 colon, with COLO 205 colon and in the experiment on DU-145 prostate was over 100 µM in each case. Moreover, the TGI in the experiment on OVCAR-8 ovarian, with UACC-62 melanoma, with M14 melanoma and in the experiment with ACHN renal was over 100 µM in each case.

Consider `CCOC(=O)c1c(SC(=O)c2ccc(OC)cc2)n(-c2ccccc2)c(=S)n(-c2ccccc2)c1=O`, for which the TGI in the experiment on EKVX NSCLC is over 100 µM; in the experiment with U251 CNS, over 100 µM; with SW-620 colon, 52.5 µM; in the experiment on HCT-15 colon, 47.8 µM; with COLO 205 colon it was over 100 µM; in the experiment with DU-145 prostate, over 100 µM. The TGI in the experiment on OVCAR-8 ovarian was 76.5 µM; in the experiment on UACC-62 melanoma, over 100 µM; in the experiment with M14 melanoma it was 83.2 µM; in the experiment with ACHN renal it was over 100 µM.

With `CCN1CCC(CNC(=O)c2ccc(N)cc2)N1CC` (stereo unspecified), the TGI with EKVX NSCLC, with U251 CNS, with SW-620 colon, in the experiment on HCT-15 colon, with COLO 205 colon and in the experiment on DU-145 prostate was over 100 µM in each case. Further, the TGI with OVCAR-8 ovarian, in the experiment with UACC-62 melanoma, in the experiment on M14 melanoma and in the experiment with ACHN renal was over 100 µM each time.

In the case of `Cc1ccc(C2(c3ccc(F)cc3)OC(=O)c3ccccc32)c(O)c1` (stereo unspecified), the TGI was determined as 92.1 µM in the experiment on EKVX NSCLC; 46.2 µM in the experiment with U251 CNS; 30.6 µM in the experiment with SW-620 colon; 32.7 µM in the experiment on HCT-15 colon; 41.6 µM with COLO 205 colon; 28.7 µM in the experiment on DU-145 prostate. Further, the TGI in the experiment on OVCAR-8 ovarian came out at 48 µM; in the experiment on UACC-62 melanoma, 23 µM; in the experiment on M14 melanoma, 30.1 µM; in the experiment with ACHN renal, 28.2 µM.

In the case of `Cc1ccc2c(c1)nc1n2C(N)=Nc2ccccc2S1`, the TGI in the experiment with EKVX NSCLC, with U251 CNS, with SW-620 colon, with HCT-15 colon, in the experiment with COLO 205 colon and with DU-145 prostate was over 100 µM each time. Besides, the TGI with OVCAR-8 ovarian, in the experiment with UACC-62 melanoma, in the experiment on M14 melanoma and in the experiment on ACHN renal was over 100 µM each time.

For `CC1(C)COC2=C(C1)C(=O)c1ccccc1C2=O`, the TGI in the experiment with EKVX NSCLC is 3.59 µM; with U251 CNS, 2.78 µM; in the experiment on SW-620 colon it was 4.03 µM; with HCT-15 colon, 2.41 µM; in the experiment on COLO 205 colon it was 4.04 µM; with DU-145 prostate, 3.07 µM. In addition, the TGI in the experiment with OVCAR-8 ovarian is 1.53 µM; in the experiment with UACC-62 melanoma it was 2.53 µM; in the experiment on M14 melanoma, 2.96 µM; with ACHN renal it was 2.9 µM.

On to `O=c1c(Cc2ccc(Cl)cc2)nnc2sc(-c3ccc(-c4ccc(Cl)cc4Cl)o3)nn12`, for which the TGI in the experiment on EKVX NSCLC, with U251 CNS, in the experiment with SW-620 colon, in the experiment with HCT-15 colon, in the experiment on COLO 205 colon and in the experiment on DU-145 prostate was over 100 µM each time. The TGI in the experiment on OVCAR-8 ovarian, with UACC-62 melanoma, in the experiment with M14 melanoma and with ACHN renal was over 100 µM each time.

As to `CCc1c(-c2ccc(OC)cc2)oc(OC)c(C)c1=O`, the TGI in the experiment on EKVX NSCLC, in the experiment on U251 CNS, with SW-620 colon, with HCT-15 colon, with COLO 205 colon and with DU-145 prostate was over 100 µM each time. In addition, the TGI in the experiment with OVCAR-8 ovarian, with UACC-62 melanoma, with M14 melanoma and with ACHN renal was over 100 µM throughout.

As for `C/C(=N\Nc1nc2ccccc2s1)c1cc2ccccc2cn1`, the TGI is 69.4 µM with EKVX NSCLC; over 100 µM in the experiment with U251 CNS; over 100 µM with SW-620 colon; 34.3 µM in the experiment on HCT-15 colon; 13.3 µM in the experiment with COLO 205 colon; 12.6 µM with DU-145 prostate. For the same compound, the TGI is 16.5 µM with OVCAR-8 ovarian, 21.1 µM in the experiment with UACC-62 melanoma, 23.2 µM in the experiment on M14 melanoma and over 100 µM in the experiment with ACHN renal.

Take `CCC(C)C1=C(O)[N+]2([O-])Oc3ccc(-c4c(O)c(O)c(-c5ccc(OC(C)=O)cc5)c(OC(C)=O)c4OC(C)=O)cc3OC2(C(C)CC)C(=O)N1O` (stereo unspecified): the TGI in the experiment with EKVX NSCLC, in the experiment with U251 CNS, with SW-620 colon, in the experiment on HCT-15 colon, in the experiment with COLO 205 colon and in the experiment with DU-145 prostate was over 50 µM throughout. For the same compound, the TGI in the experiment with OVCAR-8 ovarian, with UACC-62 melanoma, with M14 melanoma and in the experiment on ACHN renal was over 50 µM in each case.

`O=C(/C(=C\I)c1ccccc1)c1ccccc1`: the TGI with EKVX NSCLC amounted to 32.3 µM; in the experiment on U251 CNS it was 9.69 µM; with SW-620 colon, 9.93 µM; in the experiment on HCT-15 colon, 9.37 µM; in the experiment with COLO 205 colon, 11.9 µM; in the experiment on DU-145 prostate, 19.2 µM. Further, the TGI was 14.6 µM with OVCAR-8 ovarian, 12 µM in the experiment with UACC-62 melanoma, 30.5 µM with M14 melanoma and 25.7 µM in the experiment on ACHN renal.

As to `CC1(C)OC2OC(C(COS(=O)(=O)C(F)(F)F)N=[N+]=[N-])C(OC(=O)c3ccccc3)C2O1` (stereo unspecified), the TGI in the experiment with EKVX NSCLC, with U251 CNS, in the experiment on SW-620 colon, with HCT-15 colon, in the experiment with COLO 205 colon and with DU-145 prostate was over 100 µM in each case. Also, the TGI in the experiment with OVCAR-8 ovarian, in the experiment on UACC-62 melanoma, with M14 melanoma and in the experiment on ACHN renal was over 100 µM in each case.

Consider `c1ccc2c(c1)cc1n2CCc2c-1[nH]c1ccccc21`, for which the TGI in the experiment with EKVX NSCLC, in the experiment on U251 CNS, in the experiment on SW-620 colon, with HCT-15 colon, in the experiment with COLO 205 colon and in the experiment on DU-145 prostate was over 10 µM in each case. The TGI in the experiment on OVCAR-8 ovarian, with UACC-62 melanoma, with M14 melanoma and in the experiment on ACHN renal was over 10 µM each time.

With `CCOC(=O)C1(C#N)CC1`, the TGI with EKVX NSCLC, with U251 CNS, with SW-620 colon, with HCT-15 colon, with COLO 205 colon and in the experiment with DU-145 prostate was over 100 µM each time. The TGI in the experiment with OVCAR-8 ovarian, with UACC-62 melanoma, in the experiment on M14 melanoma and with ACHN renal was over 100 µM each time.

With `CCCCOC(=O)C1CC[C@H]2[C@@H]3CCc4cc(OC(=O)c5cccc6c(=O)c7ccccc7[nH]c56)ccc4[C@H]3CC[C@]12C` (stereo partly specified), the TGI came to 8.77 µM in the experiment on EKVX NSCLC; 18.7 µM in the experiment with U251 CNS; 30.5 µM with SW-620 colon; 13.5 µM with HCT-15 colon; 13.8 µM with COLO 205 colon; 14.9 µM in the experiment on DU-145 prostate. The TGI in the experiment with OVCAR-8 ovarian came out at 21.3 µM; in the experiment on UACC-62 melanoma, 13.3 µM; with M14 melanoma, 20.5 µM; with ACHN renal, 15.6 µM.

For `Cc1ccc2nc(-c3ccc(C(C)(C)C)cc3)oc(=O)c2c1`, the TGI is 69.8 µM with EKVX NSCLC; 32.5 µM with U251 CNS; over 100 µM with SW-620 colon; 54 µM with HCT-15 colon; 35.5 µM with COLO 205 colon; 68.4 µM with DU-145 prostate. The TGI is 43.9 µM in the experiment on OVCAR-8 ovarian, 49.3 µM in the experiment with UACC-62 melanoma, 74 µM in the experiment on M14 melanoma and 36.6 µM in the experiment with ACHN renal.
